Drawing on PubChem BioAssay (NCI), this text covers TGI and GI50 for 14 molecules.

Among the test systems are K-562 leukemia; IGROV1 ovarian; KM12 colon; SF-295 CNS; SN12C renal; MOLT-4 leukemia; SF-539 CNS; UACC-257 melanoma; MDA-MB-231 breast.
Common to all, as to assay: DTP human tumour cell line panel, 48 h

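Following 48 hours of exposure in 96-well plates, responses at five concentrations were used to interpolate endpoints linearly. GI50: concentration for 50% inhibition of growth. TGI: concentration producing complete growth inhibition.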

As to `CSC(=S)N(C)c1nc(=[N+](C)C)ss1`, the TGI in the assay on K-562 leukemia, in the assay on IGROV1 ovarian, with KM12 colon, with SF-295 CNS, in the assay with SN12C renal and in the assay with MOLT-4 leukemia was over 100 µM each time. The TGI in the assay on SF-539 CNS and in the assay on UACC-257 melanoma was over 100 µM throughout.

Consider `Clc1ccc(C2=Nc3ccccc3SC(c3ccc(Cl)c(Cl)c3)C2)c(Cl)c1` (configuration not stated), for which the TGI in the assay with K-562 leukemia came to 22.3 µM; in the assay with IGROV1 ovarian, 30.7 µM; with KM12 colon it was 24.2 µM; in the assay on SF-295 CNS it was 17 µM; in the assay with SN12C renal, 33.1 µM; in the assay with MOLT-4 leukemia it was 18.1 µM. Also, the TGI with SF-539 CNS was 32.9 µM; in the assay with UACC-257 melanoma, 41.1 µM.

With `O=S(=O)(O)C(F)(F)C(F)(F)C(F)(F)C(F)(F)F`, the TGI with K-562 leukemia, in the assay with IGROV1 ovarian, in the assay on KM12 colon, with SF-295 CNS, with SN12C renal and with MOLT-4 leukemia was over 100 µM throughout. For the same molecule, the TGI in the assay on SF-539 CNS and in the assay with UACC-257 melanoma was over 100 µM in each case.

As for `Cn1c2ccccc2c2c(=O)n(CCCC(=O)NCC(=O)OC(=NC3CCCCC3)NC3CCCCC3)c3c(-c4ccccc4)nnn3c21`, the GI50 in the assay with MDA-MB-231 breast was 12.4 µM; in the assay with K-562 leukemia it was 23 µM; with IGROV1 ovarian, 2.84 µM; in the assay with KM12 colon, 31.3 µM; in the assay with SF-295 CNS, over 100 µM; in the assay with SN12C renal, 19.5 µM. In addition, the GI50 in the assay on MOLT-4 leukemia was 14.5 µM; in the assay on SF-539 CNS, 19.9 µM; with UACC-257 melanoma it was 66.4 µM. The TGI was 37.7 µM in the assay with MDA-MB-231 breast; over 100 µM in the assay on K-562 leukemia; 33 µM in the assay with IGROV1 ovarian; over 100 µM with KM12 colon; over 100 µM with SF-295 CNS; 50.7 µM in the assay with SN12C renal. For the same molecule, the TGI in the assay with MOLT-4 leukemia was over 100 µM; with SF-539 CNS it was 58.1 µM; with UACC-257 melanoma it was over 100 µM.

Consider `Cc1cc2c(cn1)C(=O)OCC2`, for which the TGI in the assay with K-562 leukemia, in the assay on IGROV1 ovarian, with KM12 colon, with SF-295 CNS, in the assay on SN12C renal and in the assay on MOLT-4 leukemia was over 100 µM each time. Besides, the TGI with SF-539 CNS and with UACC-257 melanoma was over 100 µM throughout.

As for `CC1(C)CCSC(/C=C/c2ccccc2)=N1`, the TGI with MDA-MB-231 breast is 30.6 µM; in the assay on K-562 leukemia, over 100 µM; with IGROV1 ovarian, 37.8 µM; in the assay with KM12 colon, 26.1 µM; in the assay with SF-295 CNS it was 40.7 µM; in the assay on MOLT-4 leukemia, over 100 µM. The TGI stood at 43.5 µM with SF-539 CNS and 27 µM in the assay with UACC-257 melanoma.

In the case of `COc1ccc(C2(CN(C)C)COc3cc(OC)c(OC)cc3C2=O)cc1OC` (configuration not stated), the TGI in the assay with K-562 leukemia, in the assay on IGROV1 ovarian, in the assay on KM12 colon, in the assay on SF-295 CNS, in the assay with SN12C renal and with MOLT-4 leukemia was over 100 µM in each case. Moreover, the concentration for total growth inhibition (TGI) in the assay on SF-539 CNS and in the assay on UACC-257 melanoma was over 100 µM each time.

Turning to `Cc1ccccc1C(C#N)/C(=N/NC(=O)c1cc2ccccc2cc1O)C(=O)Nc1cccc(Cl)c1` (configuration not stated), the TGI with K-562 leukemia is over 100 µM; with IGROV1 ovarian it was 65.3 µM; in the assay with KM12 colon it was over 100 µM; in the assay on SF-295 CNS it was over 100 µM; with SN12C renal, over 100 µM; in the assay on MOLT-4 leukemia, over 100 µM. The figures for the TGI with SF-539 CNS and in the assay on UACC-257 melanoma were 69.9 µM and 76.1 µM, respectively.

As to `CCCOc1ccc(/C=C/c2cc(OC)c(OC)c(OC)c2)cc1`, the TGI with K-562 leukemia is over 100 µM; with IGROV1 ovarian it was over 100 µM; in the assay on KM12 colon it was over 25.4 µM; in the assay with SF-295 CNS, 1.06 µM; with SN12C renal, over 74 µM; with MOLT-4 leukemia, 13.2 µM. Also, the TGI with SF-539 CNS was determined as 0.754 µM; in the assay with UACC-257 melanoma, 39.3 µM.

On to `Nc1cc(N)c2nc(-c3ccccc3)c(Nc3ccc(F)cc3)nc2c1`, for which the GI50 was 11 µM with MDA-MB-231 breast; 4.97 µM in the assay with K-562 leukemia; 16.6 µM in the assay with IGROV1 ovarian; 12 µM in the assay on KM12 colon; 14.4 µM in the assay on SF-295 CNS; 15.6 µM with SN12C renal. The GI50 was over 100 µM in the assay with MOLT-4 leukemia, 11 µM in the assay on SF-539 CNS and 15.3 µM in the assay with UACC-257 melanoma. Also, the TGI is 30.5 µM with MDA-MB-231 breast; over 100 µM with K-562 leukemia; over 100 µM in the assay with IGROV1 ovarian; 29.5 µM in the assay on KM12 colon; 32.4 µM in the assay with SF-295 CNS; 33.9 µM in the assay with SN12C renal. Further, the TGI in the assay with MOLT-4 leukemia is over 100 µM; in the assay with SF-539 CNS it was 24.6 µM; in the assay on UACC-257 melanoma, 29 µM.

Consider `O=C(CC(=O)Nc1ccc(Cl)cc1)NNCC(=O)Nc1nc(-c2ccccc2)cs1`, for which the TGI with K-562 leukemia, with IGROV1 ovarian, in the assay with KM12 colon, in the assay with SF-295 CNS, with SN12C renal and in the assay with MOLT-4 leukemia was over 100 µM throughout. The molecule also came in with a TGI with SF-539 CNS of over 100 µM.

On to `CCCCCCCCCCCCCCCCC(C(=O)O)C(O)(CC(=O)O)C(=O)O` (configuration not stated), for which the TGI in the assay on MDA-MB-231 breast is 75.8 µM; with K-562 leukemia it was over 100 µM; in the assay with IGROV1 ovarian it was 46.4 µM; in the assay with KM12 colon, 37.3 µM; in the assay with SF-295 CNS it was 35.5 µM; in the assay on SN12C renal, 53.6 µM. Also, the results for the TGI in the assay with MOLT-4 leukemia, in the assay with SF-539 CNS and in the assay with UACC-257 melanoma were 61.6 µM, 89.3 µM and over 100 µM, respectively.

Take `CCc1ccccc1NC(=O)CCc1nc(=S)[nH][nH]1`: the TGI in the assay on K-562 leukemia, with IGROV1 ovarian, in the assay with KM12 colon, in the assay on SF-295 CNS, with SN12C renal and with MOLT-4 leukemia was over 100 µM each time. In addition, the TGI in the assay with SF-539 CNS and in the assay with UACC-257 melanoma was over 100 µM throughout.

As for `CC(=O)/C=C1/c2ccccc2N(C(C)=O)C1O` (configuration not stated), the TGI in the assay with K-562 leukemia, in the assay on IGROV1 ovarian, in the assay with KM12 colon, in the assay on SF-295 CNS, in the assay on SN12C renal and in the assay with MOLT-4 leukemia was over 100 µM each time. The TGI in the assay on SF-539 CNS and in the assay with UACC-257 melanoma was over 100 µM each time.

The term TGI denotes the concentration at which net growth stops. High values mean lower sensitivity of the cells, low ones greater sensitivity of the cells. In general, GI50 refers to the concentration giving 50% growth inhibition.
